Values quoted from earlier work as cited in paper PMC12181400, “Leveraging viral genome sequences and machine learning models for identification of potentially selective antiviral agents” (Communications Chemistry, 2025).
Structures can show the parent of a compound that is named as a salt. Where two headings read alike, the source gives them in different places.

How the values were obtained:
Conditions in all cases: cited from earlier work
[1] = tested on: cell viability (tox21-ar-mda-kb2-luc-agonist-p3)
[2] = tested on: cell viability (tox21-are-bla-p1)
[3] = tested on: cell viability (tox21-car-antagonist-p1)
[4] = tested on: cell viability (tox21-ar-mda-kb2-luc-antagonist-p2)
[5] = tested on: cell viability (tox21-car-agonist-p1)
[6] = tested on: cell viability (tox21-ap1-agonist-p1)
[7] = curve rank −9 to 9, 0 = inactive, ref NCATS Tox21 public data browser

CC(C)(Oc1ccc(Cl)cc1)C(=O)O [Clofibric acid]
0: tox21-ar-mda-kb2-luc-agonist-p3-viability (curve rank) [1] | tox21-are-bla-p1-viability (curve rank) [2] | tox21-car-antagonist-p1-viability (curve rank) [3] | tox21-ar-mda-kb2-luc-antagonist-p2-viability (curve rank) [4] | tox21-car-agonist-p1-viability (curve rank) [5] | tox21-ap1-agonist-p1-viability (curve rank) [6]

CN(C)CCOC(=O)C(c1ccccc1)C1(O)CCCC1 (stereo not drawn) [Cyclopentolate hydrochloride]
0: tox21-ar-mda-kb2-luc-agonist-p3-viability (curve rank) [1, 7] | tox21-are-bla-p1-viability (curve rank) [2, 7] | tox21-car-antagonist-p1-viability (curve rank) [3, 7] | tox21-ar-mda-kb2-luc-antagonist-p2-viability (curve rank) [4, 7] | tox21-car-agonist-p1-viability (curve rank) [5, 7] | tox21-ap1-agonist-p1-viability (curve rank) [6, 7]

COc1cc(C(=O)NCc2ccc(OCCN(C)C)cc2)cc(OC)c1OC [Trimethobenzamide hydrochloride]
0: tox21-ar-mda-kb2-luc-agonist-p3-viability (curve rank) [1] | tox21-are-bla-p1-viability (curve rank) [2] | tox21-car-antagonist-p1-viability (curve rank) [3] | tox21-ar-mda-kb2-luc-antagonist-p2-viability (curve rank) [4] | tox21-car-agonist-p1-viability (curve rank) [5] | tox21-ap1-agonist-p1-viability (curve rank) [6]

O=C1NCC2(CCN(CCc3ccccc3)CC2)O1 [Fenspiride hydrochloride]
0: tox21-ar-mda-kb2-luc-agonist-p3-viability (curve rank) [1, 7] | tox21-are-bla-p1-viability (curve rank) [2, 7] | tox21-car-antagonist-p1-viability (curve rank) [3, 7] | tox21-ar-mda-kb2-luc-antagonist-p2-viability (curve rank) [4, 7] | tox21-car-agonist-p1-viability (curve rank) [5, 7] | tox21-ap1-agonist-p1-viability (curve rank) [6, 7]

O=C(c1ccccc1)c1ccc2n1CCC2C(=O)O (stereo not drawn) [Ketorolac]
0: tox21-ar-mda-kb2-luc-agonist-p3-viability (curve rank) [1] | tox21-are-bla-p1-viability (curve rank) [2] | tox21-car-antagonist-p1-viability (curve rank) [3] | tox21-ar-mda-kb2-luc-antagonist-p2-viability (curve rank) [4] | tox21-car-agonist-p1-viability (curve rank) [5] | tox21-ap1-agonist-p1-viability (curve rank) [6]

CC(N/C(=N\C#N)Nc1ccncc1)C(C)(C)C (stereo not drawn) [Pinacidil monohydrate]
0: tox21-ar-mda-kb2-luc-agonist-p3-viability (curve rank) [1] | tox21-are-bla-p1-viability (curve rank) [2] | tox21-car-antagonist-p1-viability (curve rank) [3] | tox21-ar-mda-kb2-luc-antagonist-p2-viability (curve rank) [4] | tox21-car-agonist-p1-viability (curve rank) [5] | tox21-ap1-agonist-p1-viability (curve rank) [6]

NS(=O)(=O)c1cc2c(cc1C(F)(F)F)NC(Cc1ccccc1)NS2(=O)=O (stereo not drawn) [Bendroflumethiazide]
0: tox21-ar-mda-kb2-luc-agonist-p3-viability (curve rank) [1] | tox21-are-bla-p1-viability (curve rank) [2] | tox21-car-antagonist-p1-viability (curve rank) [3] | tox21-ar-mda-kb2-luc-antagonist-p2-viability (curve rank) [4] | tox21-car-agonist-p1-viability (curve rank) [5] | tox21-ap1-agonist-p1-viability (curve rank) [6]

CC(C(=O)O)c1ccc(C(=O)c2ccccc2)s1 (stereo not drawn) [Tiaprofenic acid]
0: tox21-ar-mda-kb2-luc-agonist-p3-viability (curve rank) [1] | tox21-are-bla-p1-viability (curve rank) [2] | tox21-car-antagonist-p1-viability (curve rank) [3] | tox21-ar-mda-kb2-luc-antagonist-p2-viability (curve rank) [4] | tox21-car-agonist-p1-viability (curve rank) [5] | tox21-ap1-agonist-p1-viability (curve rank) [6]

COc1ccc(OC)c(C(O)CNC(=O)CN)c1 (stereo not drawn) [Midodrine hydrochloride]
0: tox21-ar-mda-kb2-luc-agonist-p3-viability (curve rank) [1] | tox21-are-bla-p1-viability (curve rank) [2] | tox21-car-antagonist-p1-viability (curve rank) [3] | tox21-ar-mda-kb2-luc-antagonist-p2-viability (curve rank) [4] | tox21-car-agonist-p1-viability (curve rank) [5] | tox21-ap1-agonist-p1-viability (curve rank) [6]
